# Like-named read-outs stand apart in the source and are kept apart here.
# Tests used:
# [1] = can cause death from hypoxia; cited from earlier work
# people = settings: after spraying during insect eradication programs; cited from earlier work
# acetylcholinesterase = acetylcholinesterase (Homo sapiens, UniProt P22303); settings: cited from earlier work
# cholinesterase enzymes = settings: cited from earlier work
# [2] = Storage stability of malathion prepared by the process of the invention, HPLC after storage (Example 7, Table IV); format: physicochemical
# Procedure: The malathion prepared by the process of the invention was tested for storage stability. Malathion prepared by the process of the invention was stored under a variety of different temperature and humidity conditions for up to three (3) months. […] The purity of the sample was determined after storage using HPLC.
# Table IV presents the analytical data showing storage of two, different batches of malathion after storage under a variety of different conditions.
# MeOOSPO, MeOSSPO, malaxon, MeOOSPS, diethyl fumarate, dimethyl malathion, methyl malathion, O,O-methyl, ethyl S-(1,2-dicarboethoxy)ethyl phosphorodithioate, tetraethyl dithiosuccinate, isomalathion, malathion carboxylic acids, mercaptosuccinate and the tetraethyl thiodisuccinate were assayed for by HPLC. The mobile phase was a mixture of water, acetonitrile and methanol (480:370:150) and one drop of 85% phosphoric acid for each […] of mobile phase. Method validation was performed and system reproducibility, linearity, repeatability, intermediate precision, recovery of related compounds and sensitivity were assessed according to standard methology (U.S. Pharmacopeia, 2004, U.S. Pharmacopeial Convention, Inc., 12601 Twinbrook Parkway, Rockville, Md. 20852). If necessary, the mobile phase composition and/or flow rate were adjusted to meet the chromatographic parameters.
# [3] = cited from earlier work
# mice = settings: after storage for 6 months at 40° C.; cited from earlier work
# Sequence of acetylcholinesterase (P22303 32-614): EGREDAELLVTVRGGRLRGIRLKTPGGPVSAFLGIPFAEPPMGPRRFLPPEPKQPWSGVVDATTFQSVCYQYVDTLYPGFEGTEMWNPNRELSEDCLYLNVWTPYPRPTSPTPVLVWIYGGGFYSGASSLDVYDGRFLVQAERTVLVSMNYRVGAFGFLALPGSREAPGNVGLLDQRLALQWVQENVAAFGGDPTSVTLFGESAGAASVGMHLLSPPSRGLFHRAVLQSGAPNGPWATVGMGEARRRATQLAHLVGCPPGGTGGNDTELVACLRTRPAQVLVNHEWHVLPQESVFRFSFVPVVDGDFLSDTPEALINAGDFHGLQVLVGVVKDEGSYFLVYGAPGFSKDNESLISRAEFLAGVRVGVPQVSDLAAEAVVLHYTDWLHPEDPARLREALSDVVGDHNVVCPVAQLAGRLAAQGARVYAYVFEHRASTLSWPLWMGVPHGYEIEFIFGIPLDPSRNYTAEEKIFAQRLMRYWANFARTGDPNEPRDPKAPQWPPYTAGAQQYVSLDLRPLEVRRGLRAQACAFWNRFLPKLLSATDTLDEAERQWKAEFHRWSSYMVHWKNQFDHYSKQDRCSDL
structure (smiles),measurement,setting,value
CCOC(=O)CC(SP(=O)(OC)SC)C(=O)OCC (stereo not drawn) [Isomalathion],pulmonary toxicity,[1],exhibit pulmonary toxicity
same,death in people,people,cause death in people
same,activity against acetylcholinesterase as compared with malathion,acetylcholinesterase,"approximately 1,000 times"
CCOC(=O)CC(SP(=O)(OC)OC)C(=O)OCC (stereo not drawn) [Malaoxon],inhibition of cholinesterase enzymes,cholinesterase enzymes,inhibits cholinesterase enzymes
"COP(=O)(OC)SC [MeOOSPO, O,O,S-trimethyl phosphorothioate]",pulmonary toxicity,[1],exhibit pulmonary toxicity
CCOC(=O)CC(SP(=S)(OC)OC)C(=O)OCC (stereo not drawn) [malathion prepared by the process of the invention] [[(dimethoxyphosphinothioyl)thio]butanedioic acid diethyl ester],Malathion Purity,[2]; Storage at 5° C. for 3 months,greater than 98.5 % (w/w)
same,Malathion Purity,"[2]; Storage at 25° C., 60% relative humidity for 3 months",greater than 98.5 % (w/w)
same,Malathion Purity,[2]; Storage at 30° C. and 60% relative humidity for 3 months,greater than 98.5 % (w/w)
"CCOC(=O)CC(SP(=S)(OC)OCC)C(=O)OCC (stereo not drawn) [O,O-methyl,ethyl-S-(1,2-dicarboethoxy)ethyl-phosphorodithioate]",pulmonary toxicity,[1],exhibit pulmonary toxicity
"CCOC(=O)CC(SP(=S)(OC)OC)C(=O)OCC (stereo not drawn) [malathion, [(dimethoxyphosphinothioyl)thio]butanedioic acid diethyl ester]",isomalathion content of malathion,[3]; after storage for 6 months at 40° C.,0.45%
same,isomalathion content of malathion,[3]; before storage,0.2%
same,increase in toxicity as measured by LD50 in mice,mice,35%
